The text below walks through data of patent US5773423A (priority 1994, dated 1998).

The experiment concerns the target T1, rat brain A1 receptors (Rattus norvegicus, UniProt P25099).
T1 construct: in rat brain membranes; from tissue; host or cells: rat brain membranes
T1 sequence (P25099 1-326): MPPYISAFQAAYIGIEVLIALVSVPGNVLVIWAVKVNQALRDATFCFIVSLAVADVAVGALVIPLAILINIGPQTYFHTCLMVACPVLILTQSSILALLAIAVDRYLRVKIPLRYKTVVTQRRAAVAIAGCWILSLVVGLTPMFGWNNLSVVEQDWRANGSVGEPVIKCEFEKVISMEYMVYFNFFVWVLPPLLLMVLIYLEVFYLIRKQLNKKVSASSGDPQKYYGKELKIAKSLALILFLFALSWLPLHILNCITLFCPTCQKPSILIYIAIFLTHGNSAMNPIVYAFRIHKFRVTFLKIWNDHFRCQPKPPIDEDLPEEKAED
Kind of experiment: Displacement of [125I]APNEA binding in rat brain membranes. The settings on record: read-out: IC50 vs. displacement of specific binding of [125I]APNEA, Ki (A1) column of Table 2, footnote f. (In general: Displacement assays read how much labelled ligand stays bound in the presence of the test substance.)

In the case of `Nc1ccc(CCNc2ncnc3c2ncn3[C@@H]2O[C@H](CO)[C@@H](O)[C@H]2O)cc1I` [[^125 I]APNEA, [^125 I]N^6-2-(4-aminophenyl)ethyladenosine], the IC50 amounted to 2.1 nM.

One may read the IC50 as the point on the concentration scale where inhibition reaches its midpoint.
